The values that follow are results of earlier work, collected in PMC3086271 (Biochemical Journal, 2011).

Read-outs that look alike come from different tables or passages of the source.

For data set [1], the target named is N-ACE of human somatic ACE. To be noted: read-out: Ki for N-ACE.
Data set [2] has as its target C-ACE of human somatic ACE. As to conditions: read-out: Ki for C-ACE.
Data set [3] has as its system mean arterial blood pressure. As to conditions: spontaneous hypertensive rat, intravenous, 10 mg/kg of body weight.

Consider `O=C(N[C@@H](Cc1ccccc1)P(=O)(O)C1CCCC1C(=O)N[C@@H](Cc1c[nH]c2ccccc12)C(=O)O)OCc1ccccc1` (some centres unmarked) [RXPA380], for which the results for the inhibition constant (Ki) in data set [1] and in data set [2] (C-ACE-specific phosphinic inhibitor) were 2500 nM and 3 nM, respectively.

Consider `O=C(N[C@@H](Cc1ccccc1)P(=O)(O)CC(Cc1cc(-c2ccccc2)no1)C(=O)N[C@@H](Cc1ccc(O)cc1)C(=O)O)OCc1ccccc1` (stereo partly drawn) [FII, (2S)-2-({3[hydroxyl(2-phenyl-(1R)-1-{[(benzyloxy)carbonyl]-amino}ethyl)phosphinyl]-2-[(3-phenylisoxazol-5-yl)methyl]-1-oxo-propyl}amino)-3-(4-hydroxy-phenyl) propanoic acid], for which the “lowering of mean arterial blood pressure as compared with controls” value in data set [3] is 24±2 mmHg. For the compound `NCCCC[C@H](N[C@@H](CCc1ccccc1)C(=O)O)C(=O)N1CCC[C@H]1C(=O)O` [lisinopril], the Ki (in general, the dissociation constant of the complex between target and ligand, obtained from inhibition or displacement) was 44 nM in data set [1] (N-ACE of human somatic ACE) and 2.4 nM in data set [2] (C-ACE of human somatic ACE).
